Data reported in patent publication US20090137565A1, “Method for treatment of movement disorders” (The Trustees of Columbia University in the City of New York, priority 2004, published 2009).

What was measured:
[1] = tested on: ethanol-responsive myoclonus (PHM, MD); assay: Five-patient open-label trial of sodium oxybate, blinded UMRS (patients #1-3); format: in vivo, human; conditions: for UMRS section 2 (myoclonus at rest) score: range 0-128; for UMRS section 1 (patient questionnaire) score: range 0-44; for UMRS section 6 (global disability score): range 0-4; for UMRS section 3 (stimulus sensitivity) score: range 0-17; for UMRS section 5 (functional tests) score: range 0-20, 0 gm score 20; for UMRS section 4 (myoclonus with action) score: range 0-160; for UMRS section 5 (functional tests, modified) score: range 0-28
Text: Five patients were enrolled in a trial from the Movement Disorders Division of Columbia University Medical Center during the fall of 2004. All patients were afflicted with hyperkinetic movement disorders that responded to ethanol (defined as a noticeable change to the patient), and all were refractory to treatment with conventional medications or could not tolerate them. The Medical Center's Institutional Review Board approved the trial, and written and verbal informed consent were obtained from all patients prior to enrollment.
The dose and timing of all other drugs were kept constant throughout the trial, and patients were not withdrawn from other medications. Patients #1-3 were examined and videotaped using the Unified Myoclonus Rating Scale (UMRS), and patients #4 and 5 were examined and videotaped using the Washington Heights Inwood Tremor Rating Scale (WHIGET) (see Appendix I). Frucht S. J., et al. Adv Neurol 89:361-76 (2002); Louis, E. D., et al. Mov Disord 16:89-93 (2001).
Side effects were defined as either minor or serious (leading to hospitalization) using good clinical practice standards (www.who.int/medicines/library/par/ggcp/GCPGuidePharmatrials), and patients were asked to report side effects at each visit. After initial examination and videotaping, patients were given 1 gm of sodium oxybate by mouth (2 ml of the standard 0.5 gm/ml solution dissolved in 60 ml of water). One hour later, the senior author repeated the examination and videotaping. […] After two weeks taking 2 gm twice daily, the procedure was repeated after a 3 gm office dose, and finally two weeks after receiving 3 gm twice daily, the procedure was repeated after a 4 gm office dose. The maximum dose allowed in the trial was 4 gm twice daily. Patients and the senior author determined at each visit whether or not to proceed to the next dose level, based principally on their ability to tolerate the most recent dose regimen. After deciding on a maximum tolerated dose, patients received a dose in the office 0.5 gm less and the examination was videotaped.
The entire videotape segments and patient-writing samples from each visit were copied, and were blinded to trial order and identifying features, and were randomly ordered for review using a random number table. A movement disorder expert blinded to trial design and dose schedule, scored each videotape. Sub-scores for each visit were calculated as described previously. Frucht S. J., et al. Adv Neurol 89:361-76 (2002). We modified section 5 of the UMRS in which functional performance (pouring water, using a soup spoon) is performed only with the dominant arm (section V). […] This increased the maximum score of section 5 of the UMRS from 20 to 28.

[2] = tested on: medication-refractory hyperkinetic movements; assay: Twenty-patient trial: clinical course (onset, wear-off, continuation); format: in vivo, human; conditions: noted by most patients at higher doses
Text: Twelve men and 8 women enrolled. Results from patients #6, and #s 1, 2, 7, 12, and 13 were reported previously. Frucht, S. J., et al. Mov Disord 20:745-51 (2005); Frucht, S. J., et al. Mov Disord 20:1330-7 (2005). Mean age/symptom duration was 43.9 yrs/12.3 yrs (myoclonus) and 71.2 yrs/26.7 yrs (ET). Patients with myoclonus were examined and videotaped at each visit using the Unified Myoclonus Rating Scale (UMRS), and patients with ET were examined and videotaped using the modified Washington Heights Inwood Genetic Essential Tremor Rating Scale (WHIGET; Appendix 1). Frucht, S. J., et al. Mov Disord 20:1330-7 (2005). After initial baseline examination and videotaping, patients took 1 gm of sodium oxybate by mouth (2 ml of the standard 0.5 gm/ml solution dissolved in 60 ml of water), and one hour later the videotaped examination was repeated. Patients were maintained on a dose of 1 gm T.I.D. (taken before meals) until their next office visit two weeks later, when the examination and videotaping were repeated one hour after receiving 1.5 gm of sodium oxybate. Subsequent visits and dose titrations at two-week intervals were repeated until the maximum dose was reached (3 gm T.I.D), patients were satisfied with the results of treatment, or until they developed side effects that they viewed as troublesome. […]

[3] = tested on: NREM and REM sleep; conditions: about 30-60 mg/kg doses, healthy human volunteers; cited from earlier work
[4] = patient 1, listed as sodium oxybate, monosodium salt
[5] = patient 2, 2.5 gm, 0 gm score 4

O=C([O-])CCCO.[Na+] [GHB, 4-hydroxybutanoic acid monosodium salt]
UMRS section 2 (myoclonus at rest) score ([1]; patient 1 1 gm, 0 gm score 3): 3 | UMRS section 1 (patient questionnaire) score ([1]; patient 1 3 gm, 0 gm score 33): 31 | UMRS section 6 (global disability score) ([1]; patient 1, 1 gm, 0 gm score 4): 3 | UMRS section 3 (stimulus sensitivity) score ([1]; patient 1, 1 gm, 0 gm score 8): 3 | UMRS section 5 (functional tests) score ([1]; patient 1, 1 gm): 20 | UMRS section 4 (myoclonus with action) score ([1]; patient 1, 1 gm, 0 gm score 108): 96 | UMRS section 6 (global disability score) ([1]; patient 1, 2 gm, 0 gm score 4): 3 | UMRS section 3 (stimulus sensitivity) score ([1]; patient 1, 2 gm, 0 gm score 8): 1 | UMRS section 5 (functional tests) score ([1]; patient 1, 2 gm): 13 | UMRS section 2 (myoclonus at rest) score ([1]; patient 1, 2 gm, 0 gm score 3): 0 | UMRS section 4 (myoclonus with action) score ([1]; patient 1, 2 gm, 0 gm score 108): 64 | UMRS section 6 (global disability score) ([1]; patient 1, 2.5 gm, 0 gm score 4): 2 | UMRS section 3 (stimulus sensitivity) score ([1]; patient 1, 2.5 gm, 0 gm score 8): 2 | UMRS section 5 (functional tests) score ([1]; patient 1, 2.5 gm): 12 | UMRS section 2 (myoclonus at rest) score ([1]; patient 1, 2.5 gm, 0 gm score 3): 0 | UMRS section 4 (myoclonus with action) score ([1]; patient 1, 2.5 gm, 0 gm score 108): 54 | UMRS section 2 (myoclonus at rest) score ([1]; patient 1, 3 gm (asthma exacerbation visit), 0 gm score 3): 3 | UMRS section 6 (global disability score) ([1]; patient 1, 3 gm, 0 gm score 4): 3 | UMRS section 3 (stimulus sensitivity) score ([1]; patient 1, 3 gm, 0 gm score 8): 3 | UMRS section 5 (functional tests) score ([1]; patient 1, 3 gm): 15 | UMRS section 4 (myoclonus with action) score ([1]; patient 1, 3 gm, 0 gm score 108): 86 | Rx effect, UMRS section 4 (action myoclonus improved by) [1, 4]: 50% | Rx effect, UMRS section 5 (functional performance improved by) [1, 4]: 40% | Rx effect, UMRS section 4 ([1]; patient 2 (table b)): 88% | UMRS section 6 (global disability score) ([1]; patient 2, 1 gm, 0 gm score 1): 1 | UMRS section 3 (stimulus sensitivity) score ([1]; patient 2, 1 gm, 0 gm score 4): 2 | UMRS section 5 (functional tests, modified) score ([1]; patient 2, 1 gm, 0 gm score 10): 8 | UMRS section 2 (myoclonus at rest) score ([1]; patient 2, 1 gm, 0 gm score 4): 2 | UMRS section 4 (myoclonus with action) score ([1]; patient 2, 1 gm, 0 gm score 25): 29 | UMRS section 6 (global disability score) ([1]; patient 2, 2 gm, 0 gm score 1): 1 | UMRS section 3 (stimulus sensitivity) score ([1]; patient 2, 2 gm, 0 gm score 4): 2 | UMRS section 5 (functional tests, modified) score ([1]; patient 2, 2 gm, 0 gm score 10): 4 | UMRS section 2 (myoclonus at rest) score ([1]; patient 2, 2 gm, 0 gm score 4): 3 | UMRS section 4 (myoclonus with action) score ([1]; patient 2, 2 gm, 0 gm score 25): 9 | UMRS section 6 (global disability score) ([1]; patient 2, 2.5 gm, 0 gm score 1): 1 | UMRS section 3 (stimulus sensitivity) score [1, 5]: 0 | UMRS section 5 (functional tests, modified) score ([1]; patient 2, 2.5 gm, 0 gm score 10): 4 | UMRS section 2 (myoclonus at rest) score [1, 5]: 0 | UMRS section 4 (myoclonus with action) score ([1]; patient 2, 2.5 gm, 0 gm score 25): 3 | UMRS section 6 (global disability score) ([1]; patient 2, 3 gm, 0 gm score 1): 1 | UMRS section 3 (stimulus sensitivity) score ([1]; patient 2, 3 gm, 0 gm score 4): 0 | UMRS section 5 (functional tests, modified) score ([1]; patient 2, 3 gm, 0 gm score 10): 5 | UMRS section 2 (myoclonus at rest) score ([1]; patient 2, 3 gm, 0 gm score 4): 0 | UMRS section 4 (myoclonus with action) score ([1]; patient 2, 3 gm, 0 gm score 25): 11 | Rx effect, UMRS section 5 (functional performance improved by) ([1]; patient 2, listed as sodium oxybate, monosodium salt): 60% | Rx effect, UMRS section 4 ([1]; patient 3 (table c)): 57% | UMRS section 6 (global disability score) ([1]; patient 3, 1 gm, 0 gm score 1): 1 | UMRS section 3 (stimulus sensitivity) score ([1]; patient 3, 1 gm, 0 gm score 6): 2 | UMRS section 5 (functional tests, modified) score ([1]; patient 3, 1 gm, 0 gm score 12): 13 | UMRS section 2 (myoclonus at rest) score ([1]; patient 3, 1 gm, 0 gm score 15): 13 | UMRS section 4 (myoclonus with action) score ([1]; patient 3, 1 gm, 0 gm score 35): 25 | UMRS section 6 (global disability score) ([1]; patient 3, 2 gm, 0 gm score 1): 1 | UMRS section 3 (stimulus sensitivity) score ([1]; patient 3, 2 gm, 0 gm score 6): 3 | UMRS section 5 (functional tests, modified) score ([1]; patient 3, 2 gm, 0 gm score 12): 9 | UMRS section 2 (myoclonus at rest) score ([1]; patient 3, 2 gm, 0 gm score 15): 15 | UMRS section 4 (myoclonus with action) score ([1]; patient 3, 2 gm, 0 gm score 35): 26 | UMRS section 6 (global disability score) ([1]; patient 3, 4 gm, 0 gm score 1): 1 | UMRS section 3 (stimulus sensitivity) score ([1]; patient 3, 4 gm, 0 gm score 6): 1 | UMRS section 5 (functional tests, modified) score ([1]; patient 3, 4 gm, 0 gm score 12): 12 | UMRS section 1 (patient questionnaire) score ([1]; patient 3, 4 gm, 0 gm score 10): 5 | UMRS section 2 (myoclonus at rest) score ([1]; patient 3, 4 gm, 0 gm score 15): 10 | UMRS section 4 (myoclonus with action) score ([1]; patient 3, 4 gm, 0 gm score 35): 15 | Rx effect, UMRS section 5 (functional performance improved by) ([1]; patient 3, listed as sodium oxybate, monosodium salt): 25% | Patient self-assessment scores ([1]; patient #1): unchanged | writing and control of spoon ([1]; patient #1, one hour after 2.5 gm): able to write (although slowly) and their control of the spoon was improved | myoclonic jerks on writing, pouring, using a spoon ([1]; patient #2, after 3 gm): the amplitude and frequency of the jerks was diminished | walking ([1]; patient #3, after 4 gm): modestly improved | Patient self-assessment scores ([1]; patients #2 and 3): improved | Physician global assessment scores (UMRS part 6) ([1]; patients #2 and 3, mild (1 out of 4) throughout): remained unchanged | Action myoclonus (section 4) improved by ([1]; second of patients #1-3 'respectively' in the text (patient #2)): 57% | Action myoclonus (section 4) improved by ([1]; third of patients #1-3 'respectively' in the text (patient #3)): 88% | wear-off of benefit [2]: four to five hours | duration of normal sequence of NREM and REM sleep [3]: 2 to 3 h
